Laboratory results reported in publication PMC5847527, “Identification of a novel 2-oxindole fluorinated derivative as in vivo antitumor agent for prostate cancer acting via AMPK activation” (Scientific Reports, 2018).

How the values were obtained:
AMPK = assay: Characterization of AMPK activation by Western blot in PC-3 and LNCaP cells (Dorsomorphin, siRNA); type: cell-based, human
Method: To further confirm the compound 8c-induced activation of AMPK, PC-3 and LNCaP cells were incubated with the compound for 1 h and 24 hours in the presence of the AMPK inhibitor Dorsomorphin. […] Accordingly, ACC phosphorylation was increased at 1 h and 24 h and prevented by Dorsomorphin in both cell lines. AMPK inhibits mTORC1 through phosphorylation of Raptor on two well-conserved serine residues (ser722 and ser792) inducing cell-cycle arrest in response to an energy stress. To further support the 8c-induced AMPK activation, we determined Raptor phosphorylation on Ser792 in prostate cells.
Figure 5 AMPK activation by compound 8c in prostate cancer cells. (A) PC-3 and LNCaP cells were treated with vehicle, 25 µM compound 8c, 25 µM compound 8c + 5 μM Dorsomorphin (8c + D) or 5 μM Dorsomorphin (D), for 1 hour or 24 hours and levels of the phosphorylated AMPK (pAMPK), phosphorylated ACC (pACC), phosphorylated Raptor (pRaptor) forms and HIF1α were determined by Western blot. Upper panel, representative Western blot of three different experiments. β-tubulin (β-Tub) serves as a loading control. Lower panel, densitometric analyses of bands represented as the mean of the ratio pAMPK/AMPK or pACC/ACC. (B) Cell viability monitored by MTT assay in PC-3 and LNCaP cells treated with vehicle, 25 µM and 50 μM compound 8c alone or in the presence of 5 μM Dorsomorphin or transfected with control siRNA (siC) or α1AMPK-selective siRNA (siAMPK). (C) LNCaP cells were treated with vehicle, 25 µM compound 8c, 25 µM compound 8c + 5 μM Dorsomorphin (8c + D) or 5 μM Dorsomorphin (D), for 24 hours and levels of Androgen Receptor (AR), Prostate specific antigen (PSA) and Prostate specific membrane antigen (PSMA) were determined by Western blot.Values were normalized with the control and represent the mean ± SD of at least three independent experiments. *p < 0.05 and **p < 0.01 compared to control and ^#p < 0.05 and ^##p < 0.01 compared with 8c-treated group by the Student’s t-test.
AMPK is a heterotrimeric protein composed by catalytic (α) and regulatory (β and γ) subunits. In mammals, different isoforms of α, β and γ subunits can associate to produce up to 12 AMPK different combinations. […]
Figure 6 Phosphorylation of AMPK and ACC in prostate cells transfected with selective AMPKα1 or AMPKα2 siRNA. […] Levels of the phosphorylated AMPK (pAMPK), phosphorylated ACC (pACC) and their total forms were determined by Western blot. […]
Cells were lysed in Lysis buffer (50 mM Tris pH 7.4, 0.8 M NaCl, 5 mM MgCl2, 0.1% Triton X-100) containing Protease Inhibitor and Phosphatase inhibitor Cocktails (Roche, Basel, Switzerland). Protein concentrations were measured by BioRad™ protein assay kit (Richmond, CA, USA). […]

AMPKα1 1–550 fragment = assay: Activity on isolated AMPKα1 1–550 fragment; type: biochemical, human; conditions: fragment containing the catalytic domain
Text: We also assayed the effect of compound 8c on a fragment of the α1 isoform (aa 1–550) that contains the catalytic domain.
(B) Activity of compound 8c on isolated AMPKα1 1–550 fragment. […] Data are the mean ± S.D. of four experiments. **p < 0.01 and ***p < 0.001 compared by the Student’s t-test.

PC-3 xenograft tumors = assay: PC-3 xenograft tumor growth in nude mice; type: in vivo; conditions: 5 mg/Kg daily, 15 days
Text: To validate the therapeutic value of the compound 8c against castration-resistant prostate cancer a murine xenograft model was employed. Due to the potent effect of compound 8c on the aggressive PC-3 cell line and in order to avoid unnecessary wasting of animals according to the 3 Rs guidelines (reduction, replacement, refinement) for the use of animals in research, we only use PC-3 cells for the in vivo studies. PC-3 tumors were induced in nude mice by subcutaneous injection of cells in the right flank of the mouse. When tumors reached a 70 mm^3 volume, mice were daily treated with 5 mg/Kg of compound 8c. In vehicle-treated mice, an increase in tumor growth volume was observed during the course of the study and at the end of experimentation (Fig. 8A).
Figure 8 Inhibition of prostate tumor xenograft growth in vivo by compound 8c. […]
Male immunodeficient nude-Foxn1 (nu/nu) mice (Envigo RMS, Barcelona, Spain), 4 to 6 week old, were used for all xenograft studies. […] Tumors were measured with external calipers and volume was calculated by the modified ellipsoidal formula as volume = length × (width)^2 × 0.52 mm^3 [52],[53]. At the end of the study, the mice were sacrificed by placing them in a CO2 gas-filled chamber, and the excised tumors were recovered and homogenized in lysis buffer for protein quantification and Western blotting.

Structure (SMILES): O=C1Nc2ccccc2C1(F)Cc1ccc(-c2ccccc2)o1 (stereo not drawn) [Compound 8c, 3-fluoro-3-((5-phenylfuran-2-yl)methyl)indolin-2-one]
- activation of AMPK at 24 hours (AMPK; PC-3 and LNCaP cells, 25 µM, 24 hours vs 1 hour): also seen at 24 hours, being even more robust that at 1 hour of treatment
- 8c-induced AMPK phosphorylation with AMPKα1 subunit knocked down (AMPK; siRNA AMPKα1, 25 μM, 1 h): almost totally blocked
- AMPK and ACC phosphorylation with AMPKα2 subunit silenced (AMPK; siRNA AMPKα2, 25 μM, 1 h): still was able to phosphorylate AMPK and ACC at a similar level than in non-silenced (siC) cells
- AMPK activity of α1 isoform fragment (aa 1–550) (AMPKα1 1–550 fragment): no change in AMPK activity
- AMPK activation, ACC phosphorylation, Cyclin D1 and procaspase-3 levels in xenograft tumors (PC-3 xenograft tumors; Western blot of tumors): promoted AMPK activation, increased ACC phosphorylation, decreased Cyclin D1 and decreased procaspase-3 levels
- xenograft tumor growth (PC-3 xenograft tumors; subcutaneously, nude mice, vs vehicle): significantly reduced tumor growth
